Laboratory results: ChEMBL document CHEMBL5038633 (J Med Chem, 2022)
Where a SMILES comes first, the peptide text is derived from it. Bridges are numbered along the chain shown (N, C = ends). [ ]: non-standard residue; d: D form. Abu(4,4,4-F3) = N[C@@H](CC(F)(F)F)C(=O)O; Cha = N[C@@H](CC1CCCCC1)C(=O)O; Chg = N[C@H](C(=O)O)C1CCCCC1

Tests used:
[1] = molecular target: Sodium channel protein type 9 subunit alpha (Homo sapiens, UniProt Q15858); assay: Inhibition of human Nav1.7 stably expressed in cells with train pulses to -20 mV at 0.1 Hz and holding potential of -95 mV by Qube-automated patch clamp assay; type: cell-based
[2] = molecular target: Sodium channel protein type 4 subunit alpha (Homo sapiens, UniProt P35499); assay: Inhibition of human Nav1.4 stably expressed in cells with train pulses to -20 mV at 0.1 Hz and holding potential of -95 mV by whole-cell Qube-automated patch clamp assay; type: cell-based
[3] = molecular target: Sodium channel protein type 8 subunit alpha (Homo sapiens, UniProt Q9UQD0); assay: Inhibition of human Nav1.6 stably expressed in cells with train pulses to -20 mV at 0.1 Hz and holding potential of -85 mV by whole-cell Qube-automated patch clamp assay; type: cell-based
[4] = Inhibition of mast cell degranulation in Wistar Han rat peritoneal lavage mast cells assessed as inhibition histamine release by measuring lowest concentration at which histamine release observed measured after 30 mins; type: functional; conditions: 0.5 h

Sequence of Sodium channel protein type 8 subunit alpha (Q9UQD0 whole entry): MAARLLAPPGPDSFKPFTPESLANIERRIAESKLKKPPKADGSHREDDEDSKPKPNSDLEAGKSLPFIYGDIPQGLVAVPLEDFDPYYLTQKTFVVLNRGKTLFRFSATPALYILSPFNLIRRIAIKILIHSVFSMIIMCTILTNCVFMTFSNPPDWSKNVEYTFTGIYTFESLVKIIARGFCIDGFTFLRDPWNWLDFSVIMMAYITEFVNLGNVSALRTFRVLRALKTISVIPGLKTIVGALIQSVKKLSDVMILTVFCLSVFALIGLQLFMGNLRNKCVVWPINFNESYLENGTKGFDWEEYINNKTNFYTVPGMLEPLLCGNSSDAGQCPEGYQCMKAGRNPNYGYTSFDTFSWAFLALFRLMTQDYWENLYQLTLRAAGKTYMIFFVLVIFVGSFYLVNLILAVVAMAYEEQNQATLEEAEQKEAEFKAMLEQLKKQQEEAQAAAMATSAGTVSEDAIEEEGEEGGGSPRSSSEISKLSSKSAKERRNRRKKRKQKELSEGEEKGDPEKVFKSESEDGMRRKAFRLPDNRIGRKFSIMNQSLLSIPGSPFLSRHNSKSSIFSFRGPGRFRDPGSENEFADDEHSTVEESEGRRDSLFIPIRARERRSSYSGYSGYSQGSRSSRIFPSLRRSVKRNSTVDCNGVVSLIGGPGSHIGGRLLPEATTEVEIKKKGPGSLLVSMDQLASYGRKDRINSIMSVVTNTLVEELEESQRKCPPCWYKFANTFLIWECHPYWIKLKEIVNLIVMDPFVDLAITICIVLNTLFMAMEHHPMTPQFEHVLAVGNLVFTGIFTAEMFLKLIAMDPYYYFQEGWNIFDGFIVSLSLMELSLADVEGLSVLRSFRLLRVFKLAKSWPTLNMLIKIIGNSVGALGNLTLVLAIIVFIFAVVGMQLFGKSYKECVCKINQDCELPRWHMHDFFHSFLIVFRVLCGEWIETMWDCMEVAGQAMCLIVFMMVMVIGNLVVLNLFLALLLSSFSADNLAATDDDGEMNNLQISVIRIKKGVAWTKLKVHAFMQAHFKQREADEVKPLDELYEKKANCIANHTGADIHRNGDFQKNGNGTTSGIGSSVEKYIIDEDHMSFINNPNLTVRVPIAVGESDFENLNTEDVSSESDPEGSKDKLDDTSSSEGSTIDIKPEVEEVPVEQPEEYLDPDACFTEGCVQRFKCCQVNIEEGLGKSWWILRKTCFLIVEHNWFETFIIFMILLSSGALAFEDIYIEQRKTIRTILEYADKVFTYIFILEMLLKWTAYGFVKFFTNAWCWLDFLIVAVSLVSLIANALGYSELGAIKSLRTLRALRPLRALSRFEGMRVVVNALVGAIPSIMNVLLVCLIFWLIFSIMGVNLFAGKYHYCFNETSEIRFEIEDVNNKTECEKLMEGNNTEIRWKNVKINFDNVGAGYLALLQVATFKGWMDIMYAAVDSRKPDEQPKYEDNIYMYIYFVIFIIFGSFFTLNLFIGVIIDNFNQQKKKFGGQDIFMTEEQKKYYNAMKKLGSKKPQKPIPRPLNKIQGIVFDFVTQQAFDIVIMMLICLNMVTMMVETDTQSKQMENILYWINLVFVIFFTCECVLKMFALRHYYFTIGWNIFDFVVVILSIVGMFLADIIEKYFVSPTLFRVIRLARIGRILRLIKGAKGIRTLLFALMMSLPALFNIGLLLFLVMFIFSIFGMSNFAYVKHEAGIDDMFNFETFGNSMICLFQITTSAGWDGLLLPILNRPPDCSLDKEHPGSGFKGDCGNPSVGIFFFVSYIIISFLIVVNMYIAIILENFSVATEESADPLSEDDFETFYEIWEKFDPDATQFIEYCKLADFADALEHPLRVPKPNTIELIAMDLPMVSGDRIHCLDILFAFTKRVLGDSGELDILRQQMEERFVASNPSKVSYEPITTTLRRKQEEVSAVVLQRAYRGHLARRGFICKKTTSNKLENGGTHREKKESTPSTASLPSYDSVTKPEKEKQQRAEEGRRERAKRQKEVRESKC
Sequence of Sodium channel protein type 9 subunit alpha (Q15858 whole entry): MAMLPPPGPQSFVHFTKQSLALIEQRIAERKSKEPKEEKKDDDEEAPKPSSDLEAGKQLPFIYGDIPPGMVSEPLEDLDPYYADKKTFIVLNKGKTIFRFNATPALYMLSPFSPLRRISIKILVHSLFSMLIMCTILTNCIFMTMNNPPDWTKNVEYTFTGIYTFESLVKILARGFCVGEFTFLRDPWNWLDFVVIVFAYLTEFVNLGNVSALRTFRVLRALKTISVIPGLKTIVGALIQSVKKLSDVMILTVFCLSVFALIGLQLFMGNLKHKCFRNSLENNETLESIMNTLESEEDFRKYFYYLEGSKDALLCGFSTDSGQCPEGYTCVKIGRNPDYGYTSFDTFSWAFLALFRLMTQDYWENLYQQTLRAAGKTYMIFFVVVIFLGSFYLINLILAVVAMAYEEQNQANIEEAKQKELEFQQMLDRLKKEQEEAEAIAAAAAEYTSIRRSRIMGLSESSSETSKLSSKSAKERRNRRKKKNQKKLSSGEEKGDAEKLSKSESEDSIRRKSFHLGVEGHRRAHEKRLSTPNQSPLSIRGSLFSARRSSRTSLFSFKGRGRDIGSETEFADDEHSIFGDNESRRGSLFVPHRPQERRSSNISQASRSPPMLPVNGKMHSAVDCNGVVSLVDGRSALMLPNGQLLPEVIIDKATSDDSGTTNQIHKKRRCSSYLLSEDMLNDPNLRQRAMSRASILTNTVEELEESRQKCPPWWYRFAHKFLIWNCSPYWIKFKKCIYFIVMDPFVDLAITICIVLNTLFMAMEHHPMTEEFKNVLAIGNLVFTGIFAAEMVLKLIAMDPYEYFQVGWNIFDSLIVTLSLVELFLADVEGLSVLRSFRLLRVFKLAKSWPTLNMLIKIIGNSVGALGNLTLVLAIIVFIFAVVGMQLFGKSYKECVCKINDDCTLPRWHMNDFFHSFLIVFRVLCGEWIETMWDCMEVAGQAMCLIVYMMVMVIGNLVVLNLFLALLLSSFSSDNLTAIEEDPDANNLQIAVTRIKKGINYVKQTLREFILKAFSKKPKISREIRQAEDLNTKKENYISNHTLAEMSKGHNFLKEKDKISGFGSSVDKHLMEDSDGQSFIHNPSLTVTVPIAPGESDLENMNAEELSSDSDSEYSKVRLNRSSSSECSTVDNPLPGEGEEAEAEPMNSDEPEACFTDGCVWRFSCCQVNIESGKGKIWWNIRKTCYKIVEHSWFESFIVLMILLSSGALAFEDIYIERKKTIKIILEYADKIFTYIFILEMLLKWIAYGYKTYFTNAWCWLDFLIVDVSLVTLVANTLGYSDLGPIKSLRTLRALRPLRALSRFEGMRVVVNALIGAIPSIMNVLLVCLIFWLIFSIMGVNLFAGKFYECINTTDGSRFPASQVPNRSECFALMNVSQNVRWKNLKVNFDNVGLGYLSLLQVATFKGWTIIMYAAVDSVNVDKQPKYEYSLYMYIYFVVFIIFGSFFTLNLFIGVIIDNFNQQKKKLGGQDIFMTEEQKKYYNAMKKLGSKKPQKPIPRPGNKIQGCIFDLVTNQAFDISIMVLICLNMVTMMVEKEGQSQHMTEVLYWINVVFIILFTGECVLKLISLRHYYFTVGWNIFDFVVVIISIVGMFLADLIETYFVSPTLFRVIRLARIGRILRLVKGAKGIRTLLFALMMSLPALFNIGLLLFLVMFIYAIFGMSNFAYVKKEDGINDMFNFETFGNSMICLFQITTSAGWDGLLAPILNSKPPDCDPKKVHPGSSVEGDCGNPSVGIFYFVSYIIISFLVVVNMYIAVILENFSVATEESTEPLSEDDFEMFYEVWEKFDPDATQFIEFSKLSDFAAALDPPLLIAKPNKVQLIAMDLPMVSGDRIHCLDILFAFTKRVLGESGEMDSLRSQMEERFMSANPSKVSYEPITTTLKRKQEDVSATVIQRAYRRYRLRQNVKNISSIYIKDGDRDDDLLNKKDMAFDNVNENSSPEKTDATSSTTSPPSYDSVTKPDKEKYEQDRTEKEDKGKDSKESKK

| SMILES | IC50 [1] [µM] | IC50 [2] [µM] | IC50 [3] [µM] | LED [4] [µM] |
| --- | --- | --- | --- | --- |
| CC(=O)N[C@H]1CSSC[C@@H]2NC(=O)[C@@H]3CSSC[C@@H](C(=O)N[C@@H](CCCCN)C(=O)N[C@@H](CCCCN)C(=O)N[C@@H](CCCCN)C(=O)N[C@@H](CC(C)C)C(=O)N[C@@H](Cc4c[nH]c5ccccc45)C(N)=O)NC(=O)[C@H](Cc4c[nH]c5ccccc45)NC(=O)[C@H](CC(C)C)NC(=O)[C@H](C(C)C)NC(=O)[C@H](CSSC[C@H](NC(=O)[C@@H]4CCCN4C(=O)[C@H](C)NC(=O)[C@H](CC(C)C)NC(=O)[C@H](Cc4ccccc4)NC(=O)[C@H](CCCCN)NC(=O)[C@H](CCC(N)=O)NC1=O)C(=O)N[C@@H](CC(=O)O)C(=O)N[C@@H](CO)C(=O)N[C@@H](CCC(=O)O)C(=O)N[C@@H](CCCNC(=N)N)C(=O)N[C@@H](CCCCN)C(=O)N3)NC(=O)[C@H](CCC(=O)O)NC(=O)[C@H](CC(C)C)NC(=O)CNC(=O)[C@H](CCC(=O)O)NC2=O (Ac-CQKFLAPCDSERKCCEGLECVLWCKKKLW-NH2; disulfide 1-15, 8-20, 14-24) | 0.232 | > 17 | > 17 | 30 |
| CC(=O)N[C@H]1CSSC[C@@H]2NC(=O)[C@@H]3CSSC[C@@H](C(=O)N[C@@H](CCCCN)C(=O)N[C@@H](CCCCN)C(=O)N[C@@H](CCCCN)C(=O)N[C@@H](CC(C)C)C(=O)N[C@@H](Cc4c[nH]c5ccccc45)C(N)=O)NC(=O)[C@H](Cc4c[nH]c5ccccc45)NC(=O)[C@H](CC(C)C)NC(=O)[C@H](CCCNC(=N)N)NC(=O)[C@H](CSSC[C@H](NC(=O)[C@@H]4CCCN4C(=O)[C@H](C)NC(=O)[C@H](CC(C)C)NC(=O)[C@H](Cc4ccccc4)NC(=O)[C@H](CCCCN)NC(=O)[C@H](CCC(N)=O)NC1=O)C(=O)N[C@@H](CC(=O)O)C(=O)N[C@@H](CO)C(=O)N[C@@H](CCC(=O)O)C(=O)N[C@@H](CCCNC(=N)N)C(=O)N[C@@H](CCCCN)C(=O)N3)NC(=O)[C@H](C(C)C)NC(=O)[C@H](CC(C)C)NC(=O)CNC(=O)[C@H](CCC(=O)O)NC2=O (Ac-CQKFLAPCDSERKCCEGLVCRLWCKKKLW-NH2; disulfide 1-15, 8-20, 14-24) | 0.02 | 1.24 | 1.23 | 3.3 |
| CC(=O)N[C@H]1CSSC[C@@H]2NC(=O)[C@@H]3CSSC[C@@H](C(=O)N[C@@H](CCCCN)C(=O)N[C@@H](CCCCN)C(=O)N[C@@H](CCCCN)C(=O)N[C@@H](CC(C)C)C(=O)N[C@@H](Cc4c[nH]c5ccccc45)C(N)=O)NC(=O)[C@H](Cc4c[nH]c5ccccc45)NC(=O)[C@H](CC(C)C)NC(=O)[C@H](CCCCN)NC(=O)[C@H](CSSC[C@H](NC(=O)[C@@H]4CCCN4C(=O)[C@H](CCC(=O)O)NC(=O)[C@H](CC(C)C)NC(=O)[C@H](Cc4ccccc4)NC(=O)[C@H](CCCCN)NC(=O)[C@H](CCC(N)=O)NC1=O)C(=O)N[C@@H](CC(=O)O)C(=O)N[C@@H](CCC(=O)O)C(=O)N[C@@H](CCC(=O)O)C(=O)N[C@@H](CCCNC(=N)N)C(=O)N[C@@H](CCCCN)C(=O)N3)NC(=O)[C@H](C(C)C)NC(=O)[C@H](CC(C)C)NC(=O)CNC(=O)[C@H](CCC(=O)O)NC2=O (Ac-CQKFLEPCDEERKCCEGLVCKLWCKKKLW-NH2; disulfide 1-15, 8-20, 14-24) | 0.218 | > 17 | > 17 | 10 |
| CC(=O)N[C@H]1CSSC[C@@H]2NC(=O)[C@@H]3CSSC[C@@H](C(=O)N[C@@H](CCCCN)C(=O)N[C@@H](CCCCN)C(=O)N[C@@H](CCCCN)C(=O)N[C@@H](CC(C)C)C(=O)N[C@@H](Cc4c[nH]c5ccccc45)C(N)=O)NC(=O)[C@H](Cc4c[nH]c5ccccc45)NC(=O)[C@H](CC(C)C)NC(=O)[C@H](CCCNC(=N)N)NC(=O)[C@H](CSSC[C@H](NC(=O)[C@@H]4CCCN4C(=O)[C@H](CCC(=O)O)NC(=O)[C@H](CC(C)C)NC(=O)[C@H](Cc4ccccc4)NC(=O)[C@H](CCCCN)NC(=O)[C@H](CCC(N)=O)NC1=O)C(=O)N[C@@H](CC(=O)O)C(=O)N[C@@H](CO)C(=O)N[C@@H](CCC(=O)O)C(=O)N[C@@H](CCCNC(=N)N)C(=O)N[C@@H](CCCCN)C(=O)N3)NC(=O)[C@H](CCC(=O)O)NC(=O)[C@H](CC(C)C)NC(=O)CNC(=O)[C@H](CCC(=O)O)NC2=O (Ac-CQKFLEPCDSERKCCEGLECRLWCKKKLW-NH2; disulfide 1-15, 8-20, 14-24) | 0.097 | > 17 | > 17 | 10 |
| CC(=O)N[C@H]1CSSC[C@@H]2NC(=O)[C@@H]3CSSC[C@@H](C(=O)N[C@@H](CCCCN)C(=O)N[C@@H](CCCCN)C(=O)N[C@@H](CCCCN)C(=O)N[C@@H](CC(C)C)C(=O)N[C@@H](Cc4c[nH]c5ccccc45)C(N)=O)NC(=O)[C@H](Cc4c[nH]c5ccccc45)NC(=O)[C@H](CC(C)C)NC(=O)[C@H](CCCNC(=N)N)NC(=O)[C@H](CSSC[C@H](NC(=O)[C@@H]4CCCN4C(=O)[C@H](CCC(=O)O)NC(=O)[C@H](CC(C)C)NC(=O)[C@H](Cc4ccccc4)NC(=O)[C@H](CCCCN)NC(=O)[C@H](CCC(N)=O)NC1=O)C(=O)N[C@@H](CC(=O)O)C(=O)N[C@@H](CO)C(=O)N[C@@H](CCC(=O)O)C(=O)N[C@@H](CCCNC(=N)N)C(=O)N[C@@H](CCCCN)C(=O)N3)NC(=O)[C@H](C(C)C)NC(=O)[C@H](CC(C)C)NC(=O)CNC(=O)[C@H](CCC(=O)O)NC2=O (Ac-CQKFLEPCDSERKCCEGLVCRLWCKKKLW-NH2; disulfide 1-15, 8-20, 14-24) | 0.043 | 4.77 | 3.94 | 3.3 |
| CC(=O)N[C@H]1CSSC[C@@H]2NC(=O)[C@@H]3CSSC[C@@H](C(=O)N[C@@H](CCCCN)C(=O)N[C@@H](CCCCN)C(=O)N[C@@H](CCCCN)C(=O)N[C@@H](CC(C)C)C(N)=O)NC(=O)[C@H](Cc4c[nH]c5ccccc45)NC(=O)[C@H](C4CCCCC4)NC(=O)[C@H](CCCCN)NC(=O)[C@H](CSSC[C@H](NC(=O)[C@@H]4CCCN4C(=O)[C@H](CCC(=O)O)NC(=O)[C@H](CC(F)(F)F)NC(=O)[C@H](Cc4ccccc4)NC(=O)[C@H](CCCCN)NC(=O)[C@H](CCC(N)=O)NC1=O)C(=O)N[C@@H](CC(=O)O)C(=O)N[C@@H](CO)C(=O)N[C@@H](CCC(=O)O)C(=O)N[C@@H](CCCNC(=N)N)C(=O)N[C@@H](CCCCN)C(=O)N3)NC(=O)[C@H](CCC(=O)O)NC(=O)[C@H](CC(C)C)NC(=O)CNC(=O)[C@H](CCC(=O)O)NC2=O (Ac-CQKF[Abu(4,4,4-F3)]EPCDSERKCCEGLECK[Chg]WCKKKL-NH2; disulfide 1-15, 8-20, 14-24) | 0.24 | > 17 | > 17 | 100 |
| CC(=O)N[C@H]1CSSC[C@@H]2NC(=O)[C@@H]3CSSC[C@@H](C(=O)N[C@@H](CCCCN)C(=O)N[C@@H](CCCCN)C(=O)N[C@@H](CCCCN)C(=O)N[C@@H](CC(C)C)C(=O)N[C@@H](Cc4c[nH]c5ccccc45)C(N)=O)NC(=O)[C@H](Cc4c[nH]c5ccccc45)NC(=O)[C@H](C4CCCCC4)NC(=O)[C@H](CCCCN)NC(=O)[C@H](CSSC[C@H](NC(=O)[C@@H]4CCCN4C(=O)[C@H](CCC(=O)O)NC(=O)[C@H](CC(F)(F)F)NC(=O)[C@H](Cc4ccccc4)NC(=O)[C@H](CCCCN)NC(=O)[C@H](CCC(N)=O)NC1=O)C(=O)N[C@@H](CC(=O)O)C(=O)N[C@@H](CO)C(=O)N[C@@H](CCC(=O)O)C(=O)N[C@@H](CCCNC(=N)N)C(=O)N[C@@H](CCCCN)C(=O)N3)NC(=O)[C@H](CCC(=O)O)NC(=O)[C@H](CC(C)C)NC(=O)CNC(=O)[C@H](CCC(=O)O)NC2=O (Ac-CQKF[Abu(4,4,4-F3)]EPCDSERKCCEGLECK[Chg]WCKKKLW-NH2; disulfide 1-15, 8-20, 14-24) | 0.084 | > 17 | > 17 | 30 |
| CC(=O)N[C@H]1CSSC[C@@H]2NC(=O)[C@@H]3CSSC[C@@H](C(=O)N[C@@H](CCCCN)C(=O)N[C@@H](CCCCN)C(=O)N[C@@H](CCCCN)C(=O)N[C@@H](CC(C)C)C(=O)N[C@@H](Cc4c[nH]c5ccccc45)C(N)=O)NC(=O)[C@H](Cc4c[nH]c5ccccc45)NC(=O)[C@H](CC4CCCCC4)NC(=O)[C@H](CCCCN)NC(=O)[C@H](CSSC[C@H](NC(=O)[C@@H]4CCCN4C(=O)[C@H](CCC(=O)O)NC(=O)[C@H](CC(F)(F)F)NC(=O)[C@H](CC4CCCCC4)NC(=O)[C@H](CCCCN)NC(=O)[C@H](CCC(N)=O)NC1=O)C(=O)N[C@@H](CC(=O)O)C(=O)N[C@@H](CO)C(=O)N[C@@H](CCC(=O)O)C(=O)N[C@@H](CCCNC(=N)N)C(=O)N[C@@H](CCCCN)C(=O)N3)NC(=O)[C@H](CCC(=O)O)NC(=O)[C@H](CC(C)C)NC(=O)CNC(=O)[C@H](CCC(=O)O)NC2=O (Ac-CQK[Cha][Abu(4,4,4-F3)]EPCDSERKCCEGLECK[Cha]WCKKKLW-NH2; disulfide 1-15, 8-20, 14-24) | 0.076 | > 17 | > 17 | 33 |
| CC(=O)N[C@H]1CSSC[C@@H]2NC(=O)[C@@H]3CSSC[C@@H](C(=O)N[C@@H](CCCCN)C(=O)N[C@@H](CCCCN)C(=O)N[C@@H](CCCCN)C(=O)N[C@@H](CC(C)C)C(=O)N[C@@H](Cc4c[nH]c5ccccc45)C(N)=O)NC(=O)[C@H](Cc4c[nH]c5ccccc45)NC(=O)[C@H](C4CCCCC4)NC(=O)[C@H](CCCCN)NC(=O)[C@H](CSSC[C@H](NC(=O)[C@@H]4CCCN4C(=O)[C@H](CCC(=O)O)NC(=O)[C@H](CC(F)(F)F)NC(=O)[C@H](CC4CCCCC4)NC(=O)[C@H](CCCCN)NC(=O)[C@H](CCC(N)=O)NC1=O)C(=O)N[C@@H](CC(=O)O)C(=O)N[C@@H](CO)C(=O)N[C@@H](CCC(=O)O)C(=O)N[C@@H](CCCNC(=N)N)C(=O)N[C@@H](CCCCN)C(=O)N3)NC(=O)[C@H](CCC(=O)O)NC(=O)[C@H](CC(C)C)NC(=O)CNC(=O)[C@H](CCC(=O)O)NC2=O (Ac-CQK[Cha][Abu(4,4,4-F3)]EPCDSERKCCEGLECK[Chg]WCKKKLW-NH2; disulfide 1-15, 8-20, 14-24) | 0.109 | > 17 | > 17 | 30 |
